Experimental data taken from US20220119446A1, “BIOMARKERS AND TREATMENT OF NEURONAL INJURY AND NEURODEGENERATION” (Board of Supervisons of Louisiana State University and …, priority 2018, published 2022).
Entries after “also recorded” stand apart in the source; their conditions may differ. * marks the point of attachment. Boc = CC(C)(C)OC(=O)*

Key:
Wnt5a [1] = experiment: Transient MCAo: Wnt5a protein in plasma; format: in vivo; settings: rat MCAo, days 1, 3 and 7 post-surgery
Description: In various exemplary embodiments, docosahexaenoic acid (DHA; 5 mg/kg, Cayman, Ann Arbor, Mich., USA), Box5 (1 mg/kg, Millipore-Sigma, Burlington, Mass.) or vehicle (0.9% saline) is administered intravenously into the femoral vein at a constant rate over 3 min using an infusion pump at 3 h after onset of MCAo. In embodiments, for western-blot study, rats are sacrificed on days 1, 3, or 7; for real-time PCR study, rats are sacrificed on days 1, 2, or 3.
A, Timeline of MCAo. DHA, Box5 or saline were administered at 1 h after 2 h of MCAo and rats were sacrificed on days 1, 2, 3 or 7. B, Effect of DHA on neurological recovery. Total score (normal score=0, maximal deficit=12), tactile placing (dorsal, lateral, proprioceptive reactions; normal score=0, maximal deficit=2) after MCAo. DHA or saline was administered at 1 h after 2 h of MCAo and rats sampled on days 1, 2, 3 or 7. […] C, Total neurological score at days 1, 3 and 7; D, MRI quantification at day 7 of the lesion volume depicting total, core and penumbra and; E, representative coronal sections showing T2 weighted image (T2WI), the defined core and penumbra region (red and blue, respectively) in the second column; and a 3D reconstruction of the lesion. […] J, Quantification of Wnt5a and NF-κB linked gene expression in MCAo. […] The mRNA were measured using SYBR green RT-PCR. […]

Wnt5a [2] = experiment: Western blot of secreted (sWnt5a) and cellular (cWnt5a) Wnt5a in RPE cells under UOS; format: cell-based, human
Description: To monitor transcription, translation, and secretion of Wnt5a, we performed western blot assays using cellular lysates and medium from hpRPE undergoing UOS+/−NPD1 at different time points. Medium was precipitated using Methanol/Chloroform to bring down all secreted Wnt5a.
The pellet can be re-suspended and denatured in 100 μl of 2× Laemmli sample buffer (Bio-Rad Laboratories, Hercules, Calif.) at 95° C. for 5 min. MCAo brain tissue and cell samples can be homogenized using RIPA (Thermo Fisher Scientific, Waltham, Mass.) buffer supplemented with protease and phosphatase inhibitor cocktails (Millipore Sigma, Burlington, Mass.). In embodiments, the amount of 30 μg of total protein is loaded in NuPAGE® Novex® 4-12% Bis-Tris precast gels (Life Technologies Corporation, Carlsbad, Calif.) and run at constant 120V for about 1 hour and 20 min. Proteins can be transferred to μm Nitrocellulose membrane using Bio-Rad Trans-Blot® Turbo™ System (Bio-Rad Laboratories, Hercules, Calif.). ECL™ Plex Fluorescent Rainbow Markers (GE Healthcare, Chicago, Ill.) can be used as the ladder for protein's molecular weight. Membranes can be blocked using 5% non-fat dry milk (Bio-Rad Laboratories, Hercules, Calif.) in TBS with 1% Tween® 20 (TBST-10×) (Croda International, Snaith, United Kingdom) for 1 hour and incubated overnight with primary antibodies. Anti-mouse or anti-rabbit secondary antibodies conjugated with Cy3 or Cy5 can be used to visualize the protein of interest. Immunoblots can be documented using LAS 4000 imaging system (GE Healthcare Life Sciences, Marlborough, Mass.). A time course exposition can be produced in each case to prevent quantification of saturated images. In embodiments, densitometry data are obtained using ImageQuant™ TL software (GE Healthcare Life Sciences, Marlborough, Mass.).
The pellet was re-suspended and denatured in 100 μl of 2× Laemmli sample buffer (Bio-Rad Laboratories) at 95° C. for 5 min. MCAo brain tissue and cell samples were homogenized using RIPA (Thermo Fisher Scientific) buffer supplemented with protease and phosphatase inhibitor cocktails (Sigma). The amount of 30 μg of total protein was loaded in NuPAGE® Novex® 4-12% Bis-Tris precast gels (Life Technologies Corporation) or Mini-PROTEAN TGX Stain free gels 4-15% and ran at constant 120V for 1 hour and 20 min or 250 V for 40 min respectively. Proteins were transferred to μm Nitrocellulose or LF-PVDF membrane using Bio-Rad Trans-Blot® Turbo™ System (Bio-Rad Laboratories). ECL™ Plex Fluorescent Rainbow Markers (GE Healthcare) were used as the ladder for protein's molecular weight. […] A time course exposition was produced in each case to prevent quantification of saturated images. […]

Molecule	plasma (blood) Wnt5a protein (Wnt5a [1])	secreted Wnt5a (sWnt5a) in medium (Wnt5a [2]; ARPE-19 cells, 600 μM H2O2 and 10 ng/ml TNFα, 6 hours, 100 nM NPD1)	secreted Wnt5a (sWnt5a) in medium (Wnt5a [2]; hpRPE cells under UOS, Pitstop2 added 2 hours before harvesting)
t-Boc-NH-Met-Asp-Gly-Cys-Glu-Leu-CO2H (Boc-MDGCEL-OH) [Box5]	failed to reduce the plasma Wnt5a content; also recorded: did not affect the levels of Wnt5a; also recorded: did not affect Wnt5a abundance		
CC/C=C\C[C@H](O)\C=C/C=C/C=C/[C@H](O)C/C=C\C/C=C\CCC(=O)O [NPD1, 10R,17S-dihydroxy-docosa-4Z,7Z,11E,13E,15Z,19Z-hexaenoic acid]		disappeared; also recorded: decreases band intensity close to control levels	decreased Wnt5a in the medium; also recorded: decreased media sWnt5a; also recorded: decreases soluble Wnt5a
